Data published in patent US20110217324A1, “INHIBITORS OF ANTIGEN PRESENTATION BY MHC CLASS II MOLECULES AND METHODS OF USE THEREOF” (priority 2007, published 2011).
Numbered stars: 1 amine (or outer) side, 2 acyl side, 3 side chain; on linkers, the order of the positions; unused ones are H or OH. Square brackets hold non-standard residues; d marks the D form. Peptide text beside a SMILES is read from it. * marks the point of attachment. X1 = O=C(C(Cc1ccc2[nH]c3ccccc3c2c1)N[*:1])[*:2]; Trp(1-Me) = Cn1cc(C[C@H](N)C(=O)O)c2ccccc21; Bta = N[C@@H](Cc1csc2ccccc12)C(=O)O; Igl = N[C@H](C(=O)O)C1Cc2ccccc2C1; Tic = O=C(O)[C@@H]1Cc2ccccc2CN1; Cit = NC(=O)NCCC[C@H](N)C(=O)O; Chg = N[C@H](C(=O)O)C1CCCCC1; X4 = c1cc(CCN*)c2cc[nH]c2c1; X6 = c1ccc2[nH]c(CCN*)cc2c1; Abu = CC[C@H](N)C(=O)O; βAla = NCCC(=O)O; Sar = CNCC(=O)O

Target: DRB5*0101 (Homo sapiens, UniProt P01903+Q30154)
Test: not given
Conditions: DR2 haplotype; cited from earlier work

| Molecule | binding affinity to DRB5*0101 molecules |
| --- | --- |
| MBP (84-102): immunodominant myelin basic protein (84-102) peptide (DPGSRPHLIRLFSRDAPGR; Myelin basic protein; UniProt P02686 84-102, looked up, fragment) | bind with high affinity |

Test system: animal models of autoimmune disease
Test: not given
Conditions: in vivo; cited from earlier work

| Molecule | activity in animal models of autoimmune disease |
| --- | --- |
| a(Cha)AAAKTAAAAa-NH2 | did not show activity |

Test system: T cell proliferation
Test: not given
Conditions: cited from earlier work

| Molecule | suppression of T cell proliferation in response to protein antigens |
| --- | --- |
| a(Cha)AAAKTAAAAa-NH2 | did not supress T cell proliferation |

Test system: DR molecules
Test: not given
Conditions: cited from earlier work

| Molecule | binding to DR molecules |
| --- | --- |
| a(Cha)AAAKTAAAAa-NH2 | binds DR molecules |

Target: T1, MHC DR2 (DRB1*1501/DRA*0101) (Homo sapiens, UniProt P01903+P01911)
T1 construct: endogenous in cells; host or cells: EBV homozygous (B lymphoblastoid) cell lines
Test: HLA II Binding Assay (competition with biotinylated reference peptide)
Conditions: purified HLA-DR, biotinylated reference compound for DRB1*1501, 37° C. 24 h to 72 h; read-out: Inhibition of peptide binding IC50 (against MHC DR2 (DRB1*1501/DRA*0101))
Description: EBV homozygous cell lines are used as sources of human HLA class II molecules. […] The supernatant from lysed cells after centrifugation (100,000 g for 1 h) is applied to Sepharose 4B and protein A-Sepharose 4B columns and then to the specific antibody column. […] Fractions are immediately neutralized to pH 7 with 2 mM Tris-HCl (pH 6.8) and extensively dialyzed against 1 mM n-dodecyl β-D-maltoside, 150 mM NaCl, 10 mM phosphate (pH 7) buffer.
Samples (100 μl per well) are incubated in 96-wells polypropylene plates at 37° C. for 24 h to 72 h. After neutralization with 50 μl of 450 mM Tris HCl pH 7.5, 0.003% thimerosal, 0.3% BSA, 1 mM n-dodecyl β-D-maltoside buffer, samples are applied to 96-well maxisorp ELISA plates previously coated with 10 μg/ml L243 Mab and saturated with 100 mM Tris HCl pH=7.5, 0.3% BSA, and 0.003% thimerosal buffer. Samples are allowed to bind to the antibody-coated plates for 2 h at room temperature. Bound biotinylated compound is detected by incubating streptavidin-alkaline phosphatase conjugate, and after washings, by the addition of 4-methylumbelliferyl phosphate substrate. […] Maximal binding is determined by incubating the biotinylated peptide with the MHC class II molecule in the absence of competitor. Binding specificity is assessed by adding an excess of non-biotinylated peptide.

| Molecule | IC50 |
| --- | --- |
| CC(C)[C@H](NC(=O)[C@@H](N)Cc1csc2ccccc12)C(=O)N[C@H](C(=O)N[C@@H](CCCNC(=N)N)C(=O)N1Cc2ccccc2C[C@H]1C(=O)N[C@@H](Cc1ccccc1)C(N)=O)C1CCCCC1 [(NH2-BTA)V(Chg)R(Tic)F] (H-[Bta]V[Chg]R[Tic]F-NH2) | 10 to 100 nM |
| CC(C)[C@H](NC(=O)CCN)C(=O)N[C@H](C(=O)N[C@@H](Cc1ccccc1)C(=O)N[C@@H](Cc1ccccc1)C(=O)N[C@@H](Cc1ccccc1)C(N)=O)C1CCCCC1 [(NH2-Beta Ala)V(Chg)FFF] (H-[βAla]V[Chg]FFF-NH2) | 100 to 1000 nM |
| CNC(=O)[C@H](Cc1ccccc1)NC(=O)[C@@H]1Cc2ccccc2CN1C(=O)[C@H](CCCNC(=N)N)NC(=O)[C@@H](NC(=O)[C@@H](NC(C)=O)C(C)C)C1Cc2ccccc2C1 [AcV(Indgly)R(Tic)F-CONHMe] (Ac-V[Igl]R[Tic]F-NHMe) | 1 to 10 nM |
| CC[C@H](N)C(=O)N[C@H](C(=O)N[C@H](C(=O)N[C@@H](CCCNC(=N)N)C(=O)N1Cc2ccccc2C[C@H]1C(=O)N[C@@H](Cc1ccccc1)C(N)=O)C1CCCCC1)C(C)C [(NH2-Abu)V(Chg)R(Tic)F] (H-[Abu]V[Chg]R[Tic]F-NH2) | 1 to 10 nM |
| CC(=O)N[C@H](C(=O)N[C@@H](CCCNC(=N)N)C(=O)N1Cc2ccccc2C[C@H]1C(=O)NC(Cc1cccc2[nH]ccc12)C(N)=O)C1CCCCC1 (stereo partly shown) [Ac(Chg)R(Tic)-(4′-Indolyl Ala)] | 10 to 100 nM |
| CNCC(=O)N[C@H](C(=O)N[C@H](C(=O)N[C@@H](CCCNC(=N)N)C(=O)N1Cc2ccccc2C[C@H]1C(=O)N[C@@H](Cc1ccccc1)C(N)=O)C1CCCCC1)C(C)C [(NH2-Sar)V(Chg)R(Tic)F] (H-[Sar]V[Chg]R[Tic]F-NH2) | 1 to 10 nM |
| CO[C@H](C)[C@H](NC(C)=O)C(=O)N[C@H](C(=O)N[C@@H](CCCNC(=N)N)C(=O)N1Cc2ccccc2C[C@H]1C(=O)N[C@@H](Cc1ccccc1)C(N)=O)C1CCCCC1 [Ac(T(OMe))(Chg)R(Tic)F] (Ac-T(Me)[Chg]R[Tic]F-NH2) | 1 to 10 nM |
| CC(=O)N[C@H](C(=O)N[C@H](C(=O)N[C@@H](CCCNC(=N)N)C(=O)N1Cc2ccccc2C[C@H]1C(=O)N[C@@H](Cc1ccccc1)C(=O)O)C1CCCCC1)C(C)C [AcV(Chg)R(Tic)F-COOH] (Ac-V[Chg]R[Tic]F-OH) | 10 to 100 nM |
| CC(C)[C@H](NC(=O)CN)C(=O)N[C@H](C(=O)N[C@@H](CCCNC(=N)N)C(=O)N1Cc2ccccc2C[C@H]1C(=O)N[C@@H](Cc1ccccc1)C(N)=O)C1CCCCC1 [(NH2-Gly)V(Chg)R(Tic)F] (H-GV[Chg]R[Tic]F-NH2) | 1 to 10 nM |
| CC(=O)N[C@H](C(=O)N[C@H](C(=O)N[C@@H](CCCNC(=N)N)C(=O)N1Cc2ccccc2C[C@H]1C(=O)NCCc1cccc2[nH]ccc12)C1CCCCC1)C(C)C [AcV(Chg)R(Tic)(4-ethylaminoindole)] (Ac-V[Chg]R[Tic]-X4) | 100 to 1000 nM |
| CC(=O)N[C@H](C(=O)N[C@@H](CCCNC(=N)N)C(=O)N1Cc2ccccc2C[C@H]1C(=O)N[C@@H](Cc1cn(C)c2ccccc12)C(N)=O)C1CCCCC1 [Ac(Chg)R(Tic)(1-Me-Trp)] (Ac-[Chg]R[Tic][Trp(1-Me)]-NH2) | 100 to 1000 nM |
| CC(C)[C@H](NC(=O)CN)C(=O)N[C@H](C(=O)N[C@@H](CCCNC(N)=O)C(=O)N1Cc2ccccc2C[C@H]1C(=O)N[C@@H](Cc1ccccc1)C(N)=O)C1CCCCC1 [(NH2-Gly)V(Chg)(Cit)(Tic)F] (H-GV[Chg][Cit][Tic]F-NH2) | 1 to 10 nM |
| CC(=O)N[C@H](C(=O)N[C@H](C(=O)N[C@@H](CCCNC(=N)N)C(=O)N1Cc2ccccc2C[C@H]1C(=O)NC(Cc1ccc2[nH]c3ccccc3c2c1)C(N)=O)C1CCCCC1)C(C)C (stereo partly shown) [AcV(Chg)R(Tic)-(3′-Carbazolyl Ala)] (Ac-V[Chg]R[Tic][X1]-NH2) | 100 to 1000 nM |
| CC(=O)N[C@H](C(=O)N[C@H](C(=O)N[C@@H](CCCNC(=N)N)C(=O)N1Cc2ccccc2C[C@H]1C(=O)NCCc1cc2ccccc2[nH]1)C1CCCCC1)C(C)C [AcV(Chg)R(Tic)(2-ethylaminoindole)] (Ac-V[Chg]R[Tic]-X6) | 100 to 1000 nM |

Target: DRB1*1501 (Homo sapiens, UniProt P01903+P01911)
Test: not given
Conditions: DR2 haplotype; cited from earlier work

| Molecule | binding affinity to DRB1*1501 molecules |
| --- | --- |
| MBP (84-102): immunodominant myelin basic protein (84-102) peptide (DPGSRPHLIRLFSRDAPGR; Myelin basic protein; UniProt P02686 84-102, looked up, fragment) | bind with high affinity |
